US20240166665A1, “COVALENT EGFR INHIBITORS AND METHODS OF USE THEREOF” (Dana-Farber Cancer Institute, Inc., priority 2021, published 2024)

Legend:
EGFR L858R = EGFR L858R (Homo sapiens (Human), UniProt P00533, L858R); assay: HTRF-based EGFR biochemical assay; settings: 100 μM ATP, 30 min preincubation, enzyme 0.1 nM
Protocol: (§1) EGFR biochemical activity measurements were carried out using the homogeneous time-resolved fluorescence (HTRF) assay (Cisbio). Inhibitors and DMSO normalizations were first dispensed to empty black low-volume 384-well plates (Corning) with D300 digital liquid dispenser (HP). All reactions were carried out at room temperature and solutions were added to plates with a Multidrop Combi Reagent Dispenser (ThermoFisher). The reaction mixture (10 μL final volume) contained 1 μM tyrosine kinase peptide-biotin substrate and mutant EGFR in a reaction buffer (50 mM HEPES pH 7.0, 5 mM MgCl2, 1 mM MnCl2, 0.01% BSA, 2 mM TCEP, 0.1 mM NaVO4). Enzyme concentrations were adjusted to accommodate varying kinase activities (L858R^0.1 nM, L858R/T790M 0.02 nM). Enzyme reaction solution (2× concentrations, 5 μL) was added to 384-well plates containing compounds and incubated for 30 mins. Enzyme reactions were initiated with the addition of 5 μL of ATP to a final concentration of 100 μM and reacted for 20 mins. Reactions were quenched with the addition of 10 μL of phospho-tyrosine antibody-Europium(III) cryptate (1-to-180 volume ratio) and Streptavidin-XL665 (46.7 nM) in EDTA-containing detection buffer, then incubated at room temperature for 1 hour, and read with a PHERAstar plate reader (excitation=337 nm, emission=620 nm and 665 nm). IC50 values were determined by inhibition curves (11-point curves from 1.0 μM to 0.130 nM or 23-point curves from 1.0 μM to […]) in triplicate with non-linear least squares fit in GraphPad Prism 7.0d.

EGFR L858R/T790M [1] = target: T1, EGFR L858R/T790M (Homo sapiens (Human), UniProt P00533, L858R/T790M); assay: HTRF-based EGFR biochemical assay; settings: 100 μM ATP, 30 min preincubation, enzyme 0.02 nM
T1 sequence (P00533 25-1210 T790M/L858R): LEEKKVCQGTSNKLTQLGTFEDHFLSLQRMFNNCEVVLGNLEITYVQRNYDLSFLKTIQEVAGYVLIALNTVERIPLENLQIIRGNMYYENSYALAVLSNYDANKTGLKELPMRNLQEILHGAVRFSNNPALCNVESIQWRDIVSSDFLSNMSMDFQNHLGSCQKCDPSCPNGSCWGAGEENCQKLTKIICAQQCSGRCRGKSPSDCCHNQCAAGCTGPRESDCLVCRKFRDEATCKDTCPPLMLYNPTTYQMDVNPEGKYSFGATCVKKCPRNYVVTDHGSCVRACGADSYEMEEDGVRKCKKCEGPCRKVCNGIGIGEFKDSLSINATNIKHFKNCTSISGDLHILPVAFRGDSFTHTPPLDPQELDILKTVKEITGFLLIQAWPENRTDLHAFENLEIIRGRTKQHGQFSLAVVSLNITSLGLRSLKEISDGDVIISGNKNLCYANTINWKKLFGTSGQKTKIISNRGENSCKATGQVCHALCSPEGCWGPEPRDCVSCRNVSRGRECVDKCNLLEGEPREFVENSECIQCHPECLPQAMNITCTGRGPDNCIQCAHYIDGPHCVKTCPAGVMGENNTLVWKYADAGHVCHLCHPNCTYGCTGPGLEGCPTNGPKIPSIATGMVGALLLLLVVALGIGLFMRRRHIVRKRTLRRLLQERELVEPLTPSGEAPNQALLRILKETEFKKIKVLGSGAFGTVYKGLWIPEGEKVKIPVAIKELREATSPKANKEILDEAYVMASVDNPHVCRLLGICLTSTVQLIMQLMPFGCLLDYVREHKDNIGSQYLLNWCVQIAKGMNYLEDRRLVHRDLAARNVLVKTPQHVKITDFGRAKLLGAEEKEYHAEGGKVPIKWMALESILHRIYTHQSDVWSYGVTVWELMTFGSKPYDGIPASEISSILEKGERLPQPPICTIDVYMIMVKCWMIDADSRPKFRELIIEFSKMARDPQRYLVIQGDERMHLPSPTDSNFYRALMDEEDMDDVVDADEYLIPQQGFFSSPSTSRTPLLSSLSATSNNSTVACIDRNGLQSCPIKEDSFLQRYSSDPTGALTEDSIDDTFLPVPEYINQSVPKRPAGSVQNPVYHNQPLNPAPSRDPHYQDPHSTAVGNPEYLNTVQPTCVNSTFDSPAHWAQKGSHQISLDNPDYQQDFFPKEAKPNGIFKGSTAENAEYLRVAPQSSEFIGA
Protocol: as §1

BaF3 EGFR L858R/C797S = assay: Ba/F3 cell proliferation (Cell Titer Glo); format: cell-based, murine; settings: Mus musculus, 72 hours exposure
Text: (§2) The EGFR mutant L858R Ba/F3 cells have been previously described (Zhou, W., et al. Nature 462, 2009, 1070-1074). The EGFR C797S and C775S mutations were introduced via site directed mutagenesis using the Quick Change Site-Directed Mutagenesis kit into a vector containing EGFR L858R mutation (Stratagene; La Jolla, CA) according to the manufacturers instructions. All constructs were confirmed by DNA sequencing. The constructs were then shuttled into the retroviral vector JP1540 by either using the Cre-recombination system (Agilent Technologies, Santa Clara, CA) or the In-fusion HD Cloning kit (TakaR^a Bio USA, Inc.; Mountain view, CA). Ba/F3 cells were then infected with retrovirus per standard protocols, as described previously (Zhou, et al, Nature 2009). Stable clones were obtained by selection in puromycin (2 μg/ml). All BaF/3 mutant cells were maintained in RPMI 1640 (Cellgro; Mediatech Inc., Herndon, CA) supplemented with 10% FBS, 100 units/mL penicillin, 100 units/mL streptomycin.
(§3) Growth and inhibition of growth was assessed by the Cell Titer Glo assay (Promega, Madison, WI) and was performed according to the manufacturer's instructions. The Cell Titer Glo assay is a luminescence-based method used to determine the number of viable cells based on quantitation of the ATP present, which is directly proportional to the amount of metabolically active cells present. Ba/F3 cells of different EGFR genotypes were exposed to compounds for 72 hours and the number of cells used per experiment was determined empirically as has been previously established (Zhou, et al., Nature 2009). All experimental points were set up in triplicates in 384-well plates. […] The curves were fitted using a non-linear regression model with a sigmoidal dose response.

BaF3 EGFR L858R = assay: Ba/F3 cell proliferation (Cell Titer Glo); format: cell-based, murine; settings: Mus musculus, 72 hours exposure
Text: as §2, §3

EGFR L858R/T790M [2] = target: T1, EGFR L858R/T790M; assay: MS intact labeling assay; format: binding; settings: 10-fold molar excess of compound, 2 h at 30° C., LC-MS
Protocol: (§4) EGFR L858R/T790M protein (10 μg) or EGFR L858R/T790M/C797S protein was treated with DMSO or a 10-fold molar excess of compound 001 for 2 h at 30° C. and analyzed by LC-MS using an HPLC (Shimadzu, Marlborough, MA) interfaced to an LTQ ion trap mass spectrometer (ThermoFisher Scientific, San Jose, CA). Protein (5 μg) was injected onto a reversed phase column (5 cm POROS 50R2, Applied Biosystems, Foster City, CA), desalted for 4 min (100% A), and gradient eluted (0-100% B in 1 min; A=0.2 M acetic acid in water; B=0.2 M acetic acid in acetonitrile) into the mass spectrometer (spray voltage=4.8 kV). The mass spectrometer was programmed to acquire profile mass spectra (m/z 300-2000). Raw data was deconvoluted using MagTran version 1.03b2.38.

[3] = target: EGFR L858R/T790M/C797S protein (Homo sapiens (Human), UniProt P00533, C797S/L858R/T790M); assay: MS intact labeling assay; format: binding; settings: 10-fold molar excess of compound, 2 h at 30° C., LC-MS
Chain of EGFR L858R/T790M/C797S protein (P00533 25-1210 T790M/C797S/L858R): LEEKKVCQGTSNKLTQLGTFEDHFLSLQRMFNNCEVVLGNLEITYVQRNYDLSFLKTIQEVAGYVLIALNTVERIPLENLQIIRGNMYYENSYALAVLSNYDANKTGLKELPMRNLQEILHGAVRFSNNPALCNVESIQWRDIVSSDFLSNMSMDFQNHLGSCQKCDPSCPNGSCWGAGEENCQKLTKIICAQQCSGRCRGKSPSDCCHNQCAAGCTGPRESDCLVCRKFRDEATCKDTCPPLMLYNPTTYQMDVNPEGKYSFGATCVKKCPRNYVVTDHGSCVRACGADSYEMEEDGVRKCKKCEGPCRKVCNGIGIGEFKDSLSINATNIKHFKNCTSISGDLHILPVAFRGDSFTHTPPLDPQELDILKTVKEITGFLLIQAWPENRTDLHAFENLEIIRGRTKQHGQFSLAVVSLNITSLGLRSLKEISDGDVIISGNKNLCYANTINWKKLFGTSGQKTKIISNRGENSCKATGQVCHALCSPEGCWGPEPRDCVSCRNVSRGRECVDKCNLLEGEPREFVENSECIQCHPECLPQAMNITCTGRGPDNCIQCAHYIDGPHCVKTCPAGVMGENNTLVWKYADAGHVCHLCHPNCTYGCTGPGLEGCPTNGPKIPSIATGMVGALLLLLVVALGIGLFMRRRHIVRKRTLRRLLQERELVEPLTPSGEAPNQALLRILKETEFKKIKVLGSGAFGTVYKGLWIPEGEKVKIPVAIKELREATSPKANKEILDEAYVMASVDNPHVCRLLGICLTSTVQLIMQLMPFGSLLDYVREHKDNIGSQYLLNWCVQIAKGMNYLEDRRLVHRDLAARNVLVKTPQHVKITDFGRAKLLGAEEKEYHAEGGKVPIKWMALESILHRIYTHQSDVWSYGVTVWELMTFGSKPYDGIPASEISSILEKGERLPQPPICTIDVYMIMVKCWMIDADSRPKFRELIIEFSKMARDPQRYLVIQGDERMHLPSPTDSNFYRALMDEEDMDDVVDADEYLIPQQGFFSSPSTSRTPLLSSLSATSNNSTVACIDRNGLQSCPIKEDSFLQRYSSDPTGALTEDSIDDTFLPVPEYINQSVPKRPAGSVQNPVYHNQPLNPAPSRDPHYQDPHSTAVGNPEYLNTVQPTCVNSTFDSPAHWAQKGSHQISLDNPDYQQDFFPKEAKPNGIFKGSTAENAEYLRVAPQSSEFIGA
Protocol: as §4

[4] = test system: NSCLC that have developed resistance to gefitinib or erlotinib; settings: patients with NSCLC resistant to gefitinib or erlotinib; cited from earlier work

Chain of EGFR L858R (P00533 25-1210 L858R): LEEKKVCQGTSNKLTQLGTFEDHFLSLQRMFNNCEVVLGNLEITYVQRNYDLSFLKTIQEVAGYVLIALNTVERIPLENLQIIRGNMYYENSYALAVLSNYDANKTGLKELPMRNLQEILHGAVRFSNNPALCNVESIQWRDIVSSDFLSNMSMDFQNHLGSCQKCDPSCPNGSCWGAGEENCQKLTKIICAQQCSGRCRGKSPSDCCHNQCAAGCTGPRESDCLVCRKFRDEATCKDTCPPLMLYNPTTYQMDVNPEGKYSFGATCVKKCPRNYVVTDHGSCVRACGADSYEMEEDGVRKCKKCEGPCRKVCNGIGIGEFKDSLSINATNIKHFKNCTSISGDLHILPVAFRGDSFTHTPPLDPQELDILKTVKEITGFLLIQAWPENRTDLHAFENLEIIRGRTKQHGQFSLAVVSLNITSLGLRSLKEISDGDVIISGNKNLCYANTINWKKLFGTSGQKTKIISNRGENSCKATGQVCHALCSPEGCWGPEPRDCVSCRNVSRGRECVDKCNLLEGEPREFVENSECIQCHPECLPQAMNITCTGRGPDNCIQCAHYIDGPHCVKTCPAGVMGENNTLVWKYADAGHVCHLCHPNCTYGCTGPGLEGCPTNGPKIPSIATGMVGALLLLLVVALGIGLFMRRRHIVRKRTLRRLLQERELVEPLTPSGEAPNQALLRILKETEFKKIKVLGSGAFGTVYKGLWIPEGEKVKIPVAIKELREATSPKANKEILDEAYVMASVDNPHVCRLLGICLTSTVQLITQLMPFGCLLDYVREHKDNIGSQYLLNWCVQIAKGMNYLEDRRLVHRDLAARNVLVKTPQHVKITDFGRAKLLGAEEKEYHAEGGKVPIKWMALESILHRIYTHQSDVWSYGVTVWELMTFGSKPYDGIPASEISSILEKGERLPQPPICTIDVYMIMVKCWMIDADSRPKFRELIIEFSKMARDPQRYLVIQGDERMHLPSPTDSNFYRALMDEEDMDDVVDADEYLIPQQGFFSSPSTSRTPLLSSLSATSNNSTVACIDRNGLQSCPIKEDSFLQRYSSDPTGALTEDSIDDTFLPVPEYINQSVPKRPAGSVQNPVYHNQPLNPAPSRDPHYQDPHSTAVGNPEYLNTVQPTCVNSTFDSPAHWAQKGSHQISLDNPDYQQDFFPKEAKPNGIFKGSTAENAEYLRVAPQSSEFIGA

IC50 (EGFR L858R) [µM] | IC50 (EGFR L858R/T790M [1]) [µM] | IC50 (BaF3 EGFR L858R/C797S) [µM] | IC50 (BaF3 EGFR L858R) [µM] | Percent Labeling (EGFR L858R/T790M [2]) [%] | Percent Labeling [3] [%] | Structure (SMILES) | RR (response rate) [4]
> 0.1 | > 0.1 | 1.46 | 2.9 | 80 | 80 | C=CC(=O)Nc1cc2cc(c1)-c1cnn(C)c1OCCC[C@@H](C)Cn1c(nc3ccc(Br)cc31)NC2=O [Compound 001] | 
> 0.1 | > 0.1 | 3.58 | 4.42 |  |  | C=CC(=O)Nc1cc2sc1-c1cnn(C)c1OCCC[C@@H](C)Cn1c(nc3ccc(Br)cc31)NC2=O [Compound 002] | 
 |  | 4.03 | 4.43 |  |  | C=CC(=O)Nc1cc2sc1-c1cnccc1OCCC[C@@H](C)Cn1c(nc3ccc(Br)cc31)NC2=O [Compound 003] | 
 |  |  |  |  |  | CN(C)C/C=C/C(=O)Nc1cc2c(Nc3ccc(F)c(Cl)c3)ncnc2cc1O[C@H]1CCOC1 [afatinib] | less than 10%
